Results reported in PubChem BioAssay AID292 (DTP/NCI, 2004).
Values joined by “and” are separate entries in the source; they are usually repeats but may differ in a detail not shown here. Equal values may be shown once. Toxic doses and inconclusive results are not listed.

Test system: B6C3F1 mice, ip Sarcoma M5076, median survival T/C
Assay: NCI In Vivo Anticancer Drug Screen. Data for tumor model Sarcoma M5076 (intraperitoneal) in B6C3F1 mice
Settings: endpoint: median survival time, higher = longer survival
Procedure: The antitumor activity of compounds was measured in mice bearing transplantable tumors. Survival or tumor size were measured and the results are expressed as the measurement made in the treated group (T) divided by the measurement made in the vehicle treated control group (C). The tumor model used in this assay is Sarcoma M5076 (intraperitoneal) in B6C3F1 mice

[1] = dose: 50.0 mg/kg/injection, schedule: Q04DX004 (ip), vehicle: Klucel (hydroxypropylcellulose) (HPC)
[2] = dose: 100.0 mg/kg/injection, schedule: Q04DX004 (ip), vehicle: Klucel (hydroxypropylcellulose) (HPC)
[3] = dose: 200.0 mg/kg/injection, schedule: Q04DX004 (ip), vehicle: Klucel (hydroxypropylcellulose) (HPC)
[4] = dose: 400.0 mg/kg/injection, schedule: Q04DX004 (ip), vehicle: Klucel (hydroxypropylcellulose) (HPC)
[5] = dose: 6.25 mg/kg/injection, schedule: Q04DX004 (ip), vehicle: water
[6] = dose: 12.5 mg/kg/injection, schedule: Q04DX004 (ip), vehicle: water
[7] = dose: 25.0 mg/kg/injection, schedule: Q04DX004 (ip), vehicle: water
[8] = dose: 50.0 mg/kg/injection, schedule: Q04DX004 (ip), vehicle: water
[9] = dose: 25.0 mg/kg/injection, schedule: Q04DX004 (ip), vehicle: Klucel (hydroxypropylcellulose) (HPC)
[10] = dose: 25.0 mg/kg/injection, schedule: Q04DX004 (ip), vehicle: saline with Tween-80
[11] = dose: 100.0 mg/kg/injection, schedule: Q04DX004 (ip), vehicle: saline with Tween-80

SMILES: Cc1cc(C(F)(F)F)nc2nc3ccccc3n12
- T/C (dose: 37.5 mg/kg/injection, schedule: Q04DX004 (ip), vehicle: Klucel (hydroxypropylcellulose) (HPC)): 100 % of control
- T/C (dose: 75.0 mg/kg/injection, schedule: Q04DX004 (ip), vehicle: Klucel (hydroxypropylcellulose) (HPC)): 95 % of control
- T/C (dose: 150.0 mg/kg/injection, schedule: Q04DX004 (ip), vehicle: Klucel (hydroxypropylcellulose) (HPC)): 96 % of control
- T/C (dose: 300.0 mg/kg/injection, schedule: Q04DX004 (ip), vehicle: Klucel (hydroxypropylcellulose) (HPC)): 95 % of control

SMILES: N[C@@H](Cc1ccc(N(CCCl)CCCl)cc1)C(=O)O
- T/C (dose: 0.5 mg/kg/injection, schedule: Q04DX004 (ip), vehicle: saline with Tween-80): 124 % of control
- T/C (dose: 2.0 mg/kg/injection, schedule: Q04DX004 (ip), vehicle: saline with Tween-80): 188 % of control
- T/C (dose: 2.0 mg/kg/injection, schedule: Q04DX004 (ip), vehicle: saline): 151 % of control
- T/C (dose: 4.0 mg/kg/injection, schedule: Q04DX004 (ip), vehicle: saline with Tween-80): 213 % of control and 221 % of control
- T/C (dose: 4.0 mg/kg/injection, schedule: Q04DX004 (ip), vehicle: saline): 172 % of control
- T/C (dose: 8.0 mg/kg/injection, schedule: Q04DX004 (ip), vehicle: saline with Tween-80): 251 % of control
- T/C (dose: 8.0 mg/kg/injection, schedule: Q04DX004 (ip), vehicle: saline): 251 % of control

SMILES: COc1ccc(N2CCCSC2=S)cc1
- T/C (dose: 31.25 mg/kg/injection, schedule: Q04DX004 (ip), vehicle: saline + Tween-80 + alcohol): 97 % of control
- T/C (dose: 62.5 mg/kg/injection, schedule: Q04DX004 (ip), vehicle: saline + Tween-80 + alcohol): 91 % of control

SMILES: CC1CC12OC(=O)N(c1cc(Cl)cc(Cl)c1)C2=O (stereo not given)
- T/C (dose: 37.5 mg/kg/injection, schedule: Q04DX004 (ip), vehicle: saline + Tween-80 + alcohol): 101 % of control
- T/C (dose: 75.0 mg/kg/injection, schedule: Q04DX004 (ip), vehicle: saline + Tween-80 + alcohol): 99 % of control
- T/C (dose: 150.0 mg/kg/injection, schedule: Q04DX004 (ip), vehicle: saline + Tween-80 + alcohol): 99 % of control
- T/C (dose: 300.0 mg/kg/injection, schedule: Q04DX004 (ip), vehicle: saline + Tween-80 + alcohol): 95 % of control
- T/C (dose: 600.0 mg/kg/injection, schedule: Q04DX004 (ip), vehicle: saline + Tween-80 + alcohol): 91 % of control

SMILES: CNC(=S)SC1=NS(=O)(=O)c2ccccc2N1
- T/C [1]: 105 % of control
- T/C (dose: 62.0 mg/kg/injection, schedule: Q04DX004 (ip), vehicle: Klucel (hydroxypropylcellulose) (HPC)): 102 % of control
- T/C [2]: 103 % of control
- T/C (dose: 104.0 mg/kg/injection, schedule: Q04DX004 (ip), vehicle: Klucel (hydroxypropylcellulose) (HPC)): 103 % of control
- T/C (dose: 173.0 mg/kg/injection, schedule: Q04DX004 (ip), vehicle: Klucel (hydroxypropylcellulose) (HPC)): 113 % of control
- T/C [3]: 96 % of control
- T/C [4]: 109 % of control

SMILES: Nc1nc2ncn(O)c2c(=O)[nH]1
- T/C (dose: 3.12 mg/kg/injection, schedule: Q04DX004 (ip), vehicle: water): 100 % of control
- T/C [5]: 100 % of control
- T/C [6]: 97 % of control
- T/C [7]: 93 % of control
- T/C [8]: 101 % of control

SMILES: [Cl][Pt][Cl].[NH-]C(CO)C(=O)O (stereo not given)
- T/C [6]: 97 % of control
- T/C [7]: 111 % of control
- T/C [8]: 111 % of control

SMILES: O=C1c2ccccc2C(=O)c2c1cn1c2Cc2ccccc2C1
- T/C [9]: 90 % of control
- T/C (dose: 25.0 mg/kg/injection, schedule: Q04DX004 (ip), vehicle: other): 96 % of control and 102 % of control
- T/C [1]: 91 % of control and 93 % of control
- T/C (dose: 50.0 mg/kg/injection, schedule: Q04DX004 (ip), vehicle: other): 96 % of control and 103 % of control
- T/C [2]: 90 % of control
- T/C (dose: 100.0 mg/kg/injection, schedule: Q04DX004 (ip), vehicle: other): 106 % of control
- T/C (dose: 150.0 mg/kg/injection, schedule: Q04DX004 (ip), vehicle: other): 93 % of control
- T/C [3]: 88 % of control
- T/C (dose: 200.0 mg/kg/injection, schedule: Q04DX004 (ip), vehicle: other): 97 % of control
- T/C [4]: 89 % of control and 95 % of control

SMILES: CO[C@@]12[C@H](COC(N)=O)C3=C(C(=O)C(C)=C(N)C3=O)N1C[C@@H]1N[C@@H]12
- T/C (dose: 0.25 mg/kg/injection, schedule: Q04DX004 (ip), vehicle: saline): 106 % of control
- T/C (dose: 0.5 mg/kg/injection, schedule: Q04DX004 (ip), vehicle: saline): 120 % of control and 121 % of control

SMILES: Nc1n[n+](-c2ccccc2)no1
- T/C [5]: 111 % of control and 117 % of control
- T/C (dose: 12.5 mg/kg/injection, schedule: Q01DX009 (ip), vehicle: water): 151 % of control
- T/C [6]: 118 % of control
- T/C (dose: 25.0 mg/kg/injection, schedule: Q01DX009 (ip), vehicle: water): 168 % of control
- T/C (dose: 50.0 mg/kg/injection, schedule: Q01DX009 (ip), vehicle: water): 172 % of control and 235 % of control

SMILES: NS(=O)(=O)OCCCCCCCOS(N)(=O)=O
- T/C [10]: 124 % of control
- T/C [11]: 185 % of control

SMILES: CC1=C(/C=C/C(C)=C/C=C/C(C)=C/C=O)C(C)(C)CCC1
- T/C (dose: 75.0 mg/kg/injection, schedule: Q04DX004 (ip), vehicle: saline + alcohol): 104 % of control
- T/C (dose: 150.0 mg/kg/injection, schedule: Q04DX004 (ip), vehicle: saline + alcohol): 96 % of control

SMILES: ClCCCN1CCN(CCCl)CC1
- T/C (dose: 0.63 mg/kg/injection, schedule: Q04DX004 (ip), vehicle: saline with Tween-80): 99 % of control
- T/C (dose: 1.25 mg/kg/injection, schedule: Q04DX004 (ip), vehicle: saline with Tween-80): 118 % of control
- T/C (dose: 10.0 mg/kg/injection, schedule: Q04DX004 (ip), vehicle: saline with Tween-80): 175 % of control
- T/C (dose: 20.0 mg/kg/injection, schedule: Q04DX004 (ip), vehicle: saline with Tween-80): 94 % of control

SMILES: CN1CCN(c2ccc3nc(-c4ccc5nc(-c6ccc(O)cc6)[nH]c5c4)[nH]c3c2)CC1
- T/C (dose: 28.0 mg/kg/injection, schedule: Q04DX004 (ip), vehicle: saline): 96 % of control
- T/C (dose: 56.0 mg/kg/injection, schedule: Q04DX004 (ip), vehicle: saline): 92 % of control
- T/C (dose: 112.0 mg/kg/injection, schedule: Q04DX004 (ip), vehicle: saline): 100 % of control
- T/C (dose: 225.0 mg/kg/injection, schedule: Q04DX004 (ip), vehicle: saline): 86 % of control

SMILES: O=C1c2ccccc2C(=O)c2c(NCCOCCO)ccc(NCCOCCO)c21
- T/C [10]: 100 % of control
- T/C (dose: 50.0 mg/kg/injection, schedule: Q04DX004 (ip), vehicle: saline with Tween-80): 103 % of control
- T/C [11]: 105 % of control
- T/C (dose: 200.0 mg/kg/injection, schedule: Q04DX004 (ip), vehicle: saline with Tween-80): 102 % of control
- T/C (dose: 400.0 mg/kg/injection, schedule: Q04DX004 (ip), vehicle: saline with Tween-80): 99 % of control

SMILES: CC/C(=C(\c1ccccc1)c1ccc(OCCN(C)C)cc1)c1ccccc1
- T/C (dose: 12.5 mg/kg/injection, schedule: Q04DX004 (ip), vehicle: Klucel (hydroxypropylcellulose) (HPC)): 101 % of control
- T/C [9]: 107 % of control
- T/C [1]: 89 % of control and 103 % of control

SMILES: Cc1ccoc1
- T/C (dose: 16.8 mg/kg/injection, schedule: Q03HX012 (ip), vehicle: saline with Tween-80): 101 % of control
- T/C (dose: 33.3 mg/kg/injection, schedule: Q03HX012 (ip), vehicle: saline with Tween-80): 93 % of control
- T/C (dose: 66.6 mg/kg/injection, schedule: Q03HX012 (ip), vehicle: saline with Tween-80): 96 % of control
- T/C (dose: 133.3 mg/kg/injection, schedule: Q03HX012 (ip), vehicle: saline with Tween-80): 100 % of control

SMILES: CC(C)(C[NH-])C[NH-].[Cl][Pt+2][Cl]
- T/C (dose: 0.25 mg/kg/injection, schedule: Q04DX004 (ip), vehicle: water): 116 % of control
- T/C (dose: 1.0 mg/kg/injection, schedule: Q04DX004 (ip), vehicle: water): 157 % of control and 174 % of control
- T/C (dose: 2.0 mg/kg/injection, schedule: Q04DX004 (ip), vehicle: water): 181 % of control and 198 % of control
- T/C (dose: 4.0 mg/kg/injection, schedule: Q04DX004 (ip), vehicle: water): 90 % of control and 241 % of control

SMILES: CN1C2CCC1C(Br)C(=O)C2 (stereo not given)
- T/C (dose: 50.0 mg/kg/injection, schedule: Q04DX004 (ip), vehicle: saline): 101 % of control
- T/C (dose: 100.0 mg/kg/injection, schedule: Q04DX004 (ip), vehicle: saline): 104 % of control
- T/C (dose: 200.0 mg/kg/injection, schedule: Q04DX004 (ip), vehicle: saline): 103 % of control

SMILES: O=C1NC(=O)N(c2ccc(Cl)c(Cl)c2)C1=O
- T/C [1]: 93 % of control
- T/C [2]: 95 % of control
- T/C [3]: 92 % of control
- T/C [4]: 89 % of control
